Experimental findings from a melting point compilation (Tetko et al.; mined from patent text by program, amines drawn as free bases though some values may be those of a salt) are described below.

Molecules are shown by their SMILES. Where only a bound is given, the exact number is not on record here.

Take `CCNc1c(C(=O)OCC)c(C)nc(N2CCN(C)CC2)c1[N+](=O)[O-]`: the melting point lay within 59 to 61 °C.

Regarding `O=S(=O)(c1ccccc1)N1CCC(C(O)(c2ccc(F)cc2)c2ccc(F)c(F)c2)CC1` (centres undefined), the melting point was 97 to 99 °C.

Molecule `NC(=O)c1sccc1SSc1ccsc1C(N)=O` registered a melting point of 222 to 223 °C.

In turn, `CC(CC1CCNCC1)c1c[nH]c2ccccc12` (centres undefined) gave a melting point of 125 °C.

For the molecule `COc1ccc(OC)c2c1CC(O)(C(=O)O)CC21SCCS1` (centres undefined), the melting point was in the range of 178 to 180 °C.

`O=S(=O)(Nc1ccncc1)c1ccc(Br)s1`: the melting point is 310 °C.

As for `COCCc1sc2ncnc(N)c2c1-c1ccc(NS(=O)(=O)c2ccccc2)cc1`, the melting point is 206 to 208 °C.

In turn, `Nc1nc(N)n(CCCOc2cccc(CN3CCCCC3)c2)n1` had a melting point of 100 °C.

As for `Cc1cc(Cl)ccc1NC(=S)Nc1ncccc1OCc1c(F)cccc1Cl`, the melting point fell in the range of 176 to 177 °C.

In the case of `CC(C)C(=O)Oc1ccc(C(=O)c2ccc(OC(=O)C(C)C)cc2)cc1`, the melting point came to 144 °C.

As for `CCOC(=O)C(=C1CCCN1C)c1ccc(F)cc1`, the melting point is 80 °C.

`Cc1cccc2c1nc(-c1cccnc1)n2Cc1c(F)cccc1F` gave a melting point of 186 to 188 °C.

Consider `COc1ccc2c(c1)C13CCN(C)C(C2)C1(O)CCOC3` (single isomer, unassigned; (+)), for which the melting point was in the range of 108 to 110 °C.

As for `CC(C)(C)OC(=O)N[C@H](C(=O)N1CCC[C@H]1C(=O)NC1CCc2nc(N)ncc2C1)C(c1ccccc1)c1ccccc1` (some centres undefined), the melting point is 127 to 130 °C.

The molecule `NC(=O)N(O)CCNC(=O)c1cccc(Oc2cc(Cl)cc(Cl)c2)c1` came in with a melting point of 164 to 166 °C.

As for `CC(C)(C)N1Sc2ccccc2C1O` (centres undefined), the melting point is 114 to 116 °C.

For the molecule `COc1ccc(-c2[nH]nc3c2C(=O)c2c(NC(=O)Nc4ccccc4)cccc2-3)cc1`, the melting point is above 300 °C.

As for `Fc1cccc2c(NCCc3ccc(Oc4cccc(C(F)(F)F)n4)cc3)ccnc12`, the melting point came to 157 °C.

Turning to `CCCCSCC(=O)c1cc2[nH]c(=O)[nH]c2cc1Cl`, the melting point lay within 199 to 201 °C.

Regarding `CN(C)Cc1ccc2cc(NC(=O)c3ccc(-c4ccc(F)cc4)cc3)ccc2n1`, the melting point is 205 to 208 °C.

`O=Cc1cn(-c2cccnc2)nc1-c1ccc([N+](=O)[O-])o1` displayed a melting point of 237 to 238 °C.

The molecule `CCS(=O)(=O)NC1CCCOc2ccccc21` (centres undefined) gave a melting point of 109 to 111 °C.

As to `S=C(NCc1ccccc1)Nc1nccs1`, the melting point was in the range of 165 to 167 °C.

For the molecule `Nc1cccc(CCC(=O)Nc2ccc(Nc3ccccc3)cc2)c1`, the melting point lay in the range of 164 to 166 °C.

In turn, `O=[N+]([O-])c1cnn2c1-c1ccccc1NC2` displayed a melting point of 156 to 157 °C.

With `CCn1nc(-c2ccccc2)c(C(C)=O)c(Nc2cccc3ncccc23)c1=O`, the melting point lay within 220 to 221 °C.

The molecule `CCCCCNC(=O)Nc1ccccc1C(=O)NCC1CCN(C(c2ccccc2)c2ccccc2)CC1` registered a melting point of 178 to 180 °C.

In turn, `CC(C)=C1C(=O)N(c2ccc(N)cc2)C(=O)/C1=C(\C)c1cc(C)oc1C` came in with a melting point of 209 to 211 °C.

`COc1ccc([C@H]2c3[nH]c4ccccc4c3C[C@H]3C(=O)NC(=O)N23)cc1` (relative stereo) showed a melting point of 295 to 305 °C.

The molecule `FC(Sc1nnc(-c2ccc(Cl)cc2)s1)=C(F)C(F)(F)F` displayed a melting point of 69 to 70 °C.

As to `O=C(O)C(=O)c1ccc(OCCCC(=O)c2ccc3ccccc3c2)cc1`, the melting point fell in the range of 133 to 135 °C.

With `COCCN(C)C1CCN(c2ccc(N)cc2C#N)CC1`, the melting point turned out to be 88 °C.

In turn, `CC(C)c1cc(NC(=O)N2CCN(c3ccnc(-c4cccc(F)c4F)n3)CC2)nnc1Cl` had a melting point of 192 to 193 °C.

In turn, `O=C(NCCO)c1cccc(-c2ccc3c(c2)N(c2ccc(Cl)cc2Cl)CC3)c1` came in with a melting point of 140 to 141 °C.

Molecule `c1ccc(CCCn2c(-c3ccc4c(c3)OCO4)nc3ccccc32)cc1` showed a melting point of 99.8 to 100 °C.

`CN(C)C(=O)Sc1ccccc1C(=O)c1ccc(C#N)cc1`: the melting point turned out to be 102 °C.

`CC(C)[C@H]1CC[C@H](C(=O)N[C@H](Cc2ccc(OCc3ccc(C(F)(F)F)cc3)cc2)C(=O)O)CC1` gave a melting point of 171 to 172 °C.

Molecule `Cc1nc2c([N+](=O)[O-])cc(S(=O)(=O)N(C)C)cc2n1C` yielded a melting point of 194 to 196 °C.

`CN(C(=O)C1CCCN(c2ccc([N+](=O)[O-])c(C=C3NC(=O)NC3=O)c2)C1)C1CCCCC1` (centres undefined) registered a melting point of 153 to 162 °C.

In turn, `Cc1nn(-c2ccc(F)cc2)cc1C(=O)Nc1ccc(OCC(C)(C)C)c(Br)c1` displayed a melting point of 193 to 194 °C.

Molecule `Cc1nccn1Cc1nc2ccccc2n1-c1ccccc1` returned a melting point of 124 to 126 °C.

`Nc1ccccc1C(=O)NCCCn1cncn1` showed a melting point of 96 to 98 °C.

`CNC(=O)OCCOc1cc(-n2c(=O)cc(C(F)(F)F)n(C)c2=O)c(F)cc1Cl` yielded a melting point of 173 to 175 °C.

In the case of `CCOP(=O)(CCc1ccnc(-c2nc(=O)c3ccccc3s2)c1)OCC`, the melting point lay in the range of 102 to 103 °C.

`CCOC(=S)C(C=P(c1ccccc1)(c1ccccc1)c1ccccc1)C(=O)C(F)(F)F` (centres undefined) displayed a melting point of 190 °C.

Take `Cc1onc(C(C)(O)c2ccccc2)c1NC(=O)CCl` (centres undefined): the melting point is 130 to 132 °C.

Consider `CCOC(=O)C1=C(C)NN=C(CC)C1c1cccc([N+](=O)[O-])c1` (centres undefined), for which the melting point is 124 °C.

Take `NC(=O)CC(c1cccc(F)c1)c1cccc(F)c1`: the melting point lay within 103 to 105 °C.

Regarding `N#Cc1ncn2c1N(C(=O)CN1CCC(c3ccccc3)CC1)CC=C2c1cccc(C(F)(F)F)c1`, the melting point was in the range of 174 to 175 °C.

In the case of `COc1cc(C(=O)NS(=O)(=O)c2ccccc2C)ccc1Cc1cn(C)c2ccc(CCNC(=O)N3CCOCC3)cc12`, the melting point lay in the range of 125 to 133 °C.

Take `CC(C)(C(O)c1ccc2c(c1)OCO2)[N+](=O)[O-]` (centres undefined): the melting point lay within 88 to 91 °C.

For `CCOC(=O)C1(O)CCSc2ccccc21` (centres undefined), the melting point lay in the range of 117 to 119 °C.

The molecule `COc1ccc(Nc2nccc(-c3cccnc3)n2)cc1` had a melting point of 121 to 122 °C.

As for `CCSc1nn2c(-c3ccc(OC)cc3)nnc2c2ccccc12`, the melting point is 176 to 178 °C.

In turn, `C=C(CCC)C(=O)c1ccc(OCC(=O)O)c(Cl)c1Cl` yielded a melting point of 111 to 113 °C.

`CC(=O)NNC(COCc1cc(C)cc(C)c1)C1c2ccccc2CCc2ccccc21` (centres undefined) registered a melting point of 109 to 111 °C.

In turn, `COC(=O)c1ccc2c(c1)Oc1ccc(C(=O)OC)cc1C2(C)C` yielded a melting point of 145 to 147 °C.

Molecule `CC(=O)SCC(Cc1ccccc1)C(=O)NN1CCCC1` (centres undefined) had a melting point of 91 °C.

For `ClCc1ccc(OCc2csc(-c3ccccc3)n2)nc1`, the melting point was in the range of 117 to 118 °C.

`Cc1c(C=NO)c2cc(F)ccc2n1-c1ccc(O)cc1`: the melting point fell in the range of 162 to 163 °C.

Consider `NC(=O)NCc1ccc2ccn(C3CCN(CCc4ccc(F)cc4)CC3)c2c1`, for which the melting point lay within 172 to 173 °C.

`Cc1cccc2nc3c(nc12)C=CCC3=O` yielded a melting point of 133 to 135 °C.

Molecule `Clc1ccccc1N1CCN(Cc2nc3ccccc3[nH]2)CC1` showed a melting point of 245 to 246 °C.

In the case of `CCNn1nnnc1S`, the melting point was 90 to 91 °C.

For the molecule `Cc1nn(-c2ccc(C(F)(F)F)cn2)cc1COc1ccc(OCC(=O)O)cc1`, the melting point fell in the range of 138 to 139 °C.

`CC1=C(C(=O)OCCN(C)Cc2ccccc2)C(c2cccc([N+](=O)[O-])c2)C(P(=O)(OC(C)C)OC(C)C)=C(C)N1` (centres undefined): the melting point was in the range of 113 to 115 °C.

On to `CS(=O)(=O)c1ccc(-n2nc(C(F)(F)F)cc2-c2nc3cccc(F)c3s2)cc1`, for which the melting point lay in the range of 186 to 188 °C.

`COc1cc(C2(O)CCN(C(=O)OC(C)(C)C)CC2)ccc1Nc1ncc2ccc(-c3ccccc3N(C)S(C)(=O)=O)n2n1` showed a melting point of 111 to 112 °C.

In turn, `O=C(O)CNC(=O)Nc1ccc(CC(=O)OCc2ccccc2)cc1` gave a melting point of 192 °C.

Molecule `COc1cc(CC#N)nc(N)n1` gave a melting point of 95 to 98 °C.

Turning to `CON(C)C(=O)c1c(-c2ccc(Cl)cc2)nsc1-c1ccccc1`, the melting point lay in the range of 119 to 120 °C.

Regarding `CC(C)c1nn2ccccc2c1C(=O)C1CC1`, the melting point stood at 72 °C.

Take `Nc1ccc(-c2cnc3c(c2)N(Cc2c(F)ccc(F)c2Cl)CCN3)cn1`: the melting point is above 200 °C.

The molecule `COc1ccc(-c2ccc(NC(=O)OC(C)(C)C)cc2)cc1` registered a melting point of 142 to 147 °C.

With `Cc1nn2ccccc2c1SC#N`, the melting point was 111 to 113 °C.

Take `COc1cccc(S(=O)(=O)N(C)C)c1C#N`: the melting point was in the range of 121 to 128 °C.

The molecule `Cn1c2c(c3c(Cl)cccc31)CCOC2(C)CC(=O)O` (centres undefined) yielded a melting point of 105 to 110 °C.

`Cc1ccc(NC(=O)c2ccc(CN3CCN(C)CC3)c(C(F)(F)F)c2)cc1-c1ccc2ccncc2c1` had a melting point of 153 to 154 °C.

As for `COc1c2c(nn1-c1ccc(Cl)cc1F)CCCC2`, the melting point lay in the range of 100 to 102 °C.

For `Cc1ccc(-n2cc(CCCO)c(C(C)C)n2)nc1`, the melting point was in the range of 82 to 83 °C.

Regarding `CN(C)N1C(=O)C(Cc2ccncc2)(Cc2ccncc2)c2ccccc21`, the melting point was in the range of 190 to 193 °C.

The molecule `CC(=O)CSC1C2=C(CCCC2)C(=O)N1c1ccc(Cl)cc1F` (centres undefined) returned a melting point of 131 to 132 °C.

For `CON=C(c1cc(C)no1)c1ccccc1COc1ncc(C(F)(F)F)cc1Cl`, the melting point lay within 77 to 79 °C.

`CC(C)(C)OC(=O)N[C@H](CNc1ccccc1N)C(=O)O` had a melting point of 158 to 160 °C.

Molecule `Cc1nccn1-c1nc(-c2ccc(Cl)cc2)c(CCO)o1` had a melting point of 159 to 160 °C.

`CCOc1ccc2[nH]cc(CC(C)(N)C(=O)OC)c2c1` (racemic) returned a melting point of 165 to 166 °C.

The molecule `CC(C)c1ccc2ccc(N)nc2n1` had a melting point of 158 to 160 °C.

As to `N=C(C1=C(O)C(=O)c2ccccc2C1=O)c1ccccc1`, the melting point was 258 to 259 °C.

As to `CCOC(=O)c1sc(SC)c(C(=O)CC(C)=O)c1C`, the melting point fell in the range of 51 to 52 °C.

For orientation: melting point means the temperature of the solid-liquid transition.
